The target in one data set is TrkB (Homo sapiens, UniProt Q16620). As to conditions: cited from earlier work.
The nature of data set [1]: Single-dose food effect study in dogs. Type of data set: in vivo. As to conditions: formulation that did not comprise at least one acidulant. The text has this: Such food effects can cause difficulty during human testing of drugs as the fed or fasted condition of the patient can cause exposure or bioavailability of drugs to vary widely.
The target in another data set is TrkC (Homo sapiens, UniProt Q16288). As to conditions: cited from earlier work.
TrkC, sequence (Q16288 32-839): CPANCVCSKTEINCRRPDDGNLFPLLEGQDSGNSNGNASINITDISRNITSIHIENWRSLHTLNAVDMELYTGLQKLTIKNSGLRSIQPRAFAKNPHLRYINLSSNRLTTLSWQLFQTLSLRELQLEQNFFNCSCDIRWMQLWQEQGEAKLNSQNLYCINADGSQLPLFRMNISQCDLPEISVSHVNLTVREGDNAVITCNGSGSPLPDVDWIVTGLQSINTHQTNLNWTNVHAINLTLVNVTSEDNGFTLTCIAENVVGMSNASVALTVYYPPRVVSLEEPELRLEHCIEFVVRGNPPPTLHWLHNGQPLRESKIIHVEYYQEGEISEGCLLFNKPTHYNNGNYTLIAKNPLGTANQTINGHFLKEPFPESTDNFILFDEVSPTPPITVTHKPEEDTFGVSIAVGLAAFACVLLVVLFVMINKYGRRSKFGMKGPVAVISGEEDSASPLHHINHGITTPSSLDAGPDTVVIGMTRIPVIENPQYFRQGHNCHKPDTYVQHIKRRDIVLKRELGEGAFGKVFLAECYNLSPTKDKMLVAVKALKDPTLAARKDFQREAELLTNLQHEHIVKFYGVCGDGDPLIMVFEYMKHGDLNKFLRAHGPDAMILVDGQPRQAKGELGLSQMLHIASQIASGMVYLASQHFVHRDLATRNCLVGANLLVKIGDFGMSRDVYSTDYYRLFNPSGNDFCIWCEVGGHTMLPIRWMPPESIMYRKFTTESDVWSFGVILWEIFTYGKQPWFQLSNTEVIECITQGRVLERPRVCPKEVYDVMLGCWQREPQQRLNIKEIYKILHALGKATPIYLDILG
Data set [2] deals with anaplastic lymphoma kinase (ALK) (Homo sapiens, UniProt Q9UM73). As to conditions: cited from earlier work.
anaplastic lymphoma kinase (ALK), sequence (Q9UM73 19-1620): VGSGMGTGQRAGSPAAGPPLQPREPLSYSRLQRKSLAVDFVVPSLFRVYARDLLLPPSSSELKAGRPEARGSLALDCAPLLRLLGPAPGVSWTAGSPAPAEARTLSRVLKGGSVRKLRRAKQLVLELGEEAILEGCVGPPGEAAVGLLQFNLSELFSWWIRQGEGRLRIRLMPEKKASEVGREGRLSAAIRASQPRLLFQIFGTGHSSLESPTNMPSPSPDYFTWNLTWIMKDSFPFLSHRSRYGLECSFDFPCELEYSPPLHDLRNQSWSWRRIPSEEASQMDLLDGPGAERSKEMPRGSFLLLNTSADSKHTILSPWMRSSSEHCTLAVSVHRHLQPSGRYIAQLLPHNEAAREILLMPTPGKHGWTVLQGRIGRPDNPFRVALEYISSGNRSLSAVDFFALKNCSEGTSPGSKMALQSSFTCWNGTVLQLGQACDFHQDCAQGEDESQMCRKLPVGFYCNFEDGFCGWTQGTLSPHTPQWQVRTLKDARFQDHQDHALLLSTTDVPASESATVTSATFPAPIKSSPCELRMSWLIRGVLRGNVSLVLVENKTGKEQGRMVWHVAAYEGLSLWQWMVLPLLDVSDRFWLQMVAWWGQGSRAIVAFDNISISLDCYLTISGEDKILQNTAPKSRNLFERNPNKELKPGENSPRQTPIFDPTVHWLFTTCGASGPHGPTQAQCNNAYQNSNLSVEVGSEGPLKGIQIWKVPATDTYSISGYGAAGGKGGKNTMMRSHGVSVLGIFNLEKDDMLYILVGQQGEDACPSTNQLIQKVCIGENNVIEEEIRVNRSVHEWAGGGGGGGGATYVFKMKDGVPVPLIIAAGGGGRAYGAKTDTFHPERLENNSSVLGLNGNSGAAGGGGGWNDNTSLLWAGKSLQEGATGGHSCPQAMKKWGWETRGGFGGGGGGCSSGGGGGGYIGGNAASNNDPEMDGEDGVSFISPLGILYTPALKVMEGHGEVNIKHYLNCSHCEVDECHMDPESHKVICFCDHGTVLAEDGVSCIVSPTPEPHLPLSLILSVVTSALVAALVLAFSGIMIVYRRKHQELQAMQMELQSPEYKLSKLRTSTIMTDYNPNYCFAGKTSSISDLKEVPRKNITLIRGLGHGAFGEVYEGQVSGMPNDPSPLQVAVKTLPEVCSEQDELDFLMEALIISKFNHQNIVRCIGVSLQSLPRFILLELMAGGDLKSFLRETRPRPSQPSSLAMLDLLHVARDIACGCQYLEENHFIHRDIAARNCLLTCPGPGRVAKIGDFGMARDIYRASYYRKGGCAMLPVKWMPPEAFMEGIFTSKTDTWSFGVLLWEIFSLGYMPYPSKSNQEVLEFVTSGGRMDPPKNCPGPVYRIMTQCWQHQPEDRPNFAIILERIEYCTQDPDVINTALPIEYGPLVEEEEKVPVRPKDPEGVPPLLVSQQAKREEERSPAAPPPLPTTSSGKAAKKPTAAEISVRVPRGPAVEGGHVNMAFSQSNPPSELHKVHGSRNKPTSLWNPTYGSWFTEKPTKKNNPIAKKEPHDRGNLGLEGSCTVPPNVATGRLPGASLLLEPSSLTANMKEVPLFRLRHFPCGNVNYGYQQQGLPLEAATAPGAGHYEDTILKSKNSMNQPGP

Structures are written as SMILES.

TrkB, sequence (Q16620 32-822): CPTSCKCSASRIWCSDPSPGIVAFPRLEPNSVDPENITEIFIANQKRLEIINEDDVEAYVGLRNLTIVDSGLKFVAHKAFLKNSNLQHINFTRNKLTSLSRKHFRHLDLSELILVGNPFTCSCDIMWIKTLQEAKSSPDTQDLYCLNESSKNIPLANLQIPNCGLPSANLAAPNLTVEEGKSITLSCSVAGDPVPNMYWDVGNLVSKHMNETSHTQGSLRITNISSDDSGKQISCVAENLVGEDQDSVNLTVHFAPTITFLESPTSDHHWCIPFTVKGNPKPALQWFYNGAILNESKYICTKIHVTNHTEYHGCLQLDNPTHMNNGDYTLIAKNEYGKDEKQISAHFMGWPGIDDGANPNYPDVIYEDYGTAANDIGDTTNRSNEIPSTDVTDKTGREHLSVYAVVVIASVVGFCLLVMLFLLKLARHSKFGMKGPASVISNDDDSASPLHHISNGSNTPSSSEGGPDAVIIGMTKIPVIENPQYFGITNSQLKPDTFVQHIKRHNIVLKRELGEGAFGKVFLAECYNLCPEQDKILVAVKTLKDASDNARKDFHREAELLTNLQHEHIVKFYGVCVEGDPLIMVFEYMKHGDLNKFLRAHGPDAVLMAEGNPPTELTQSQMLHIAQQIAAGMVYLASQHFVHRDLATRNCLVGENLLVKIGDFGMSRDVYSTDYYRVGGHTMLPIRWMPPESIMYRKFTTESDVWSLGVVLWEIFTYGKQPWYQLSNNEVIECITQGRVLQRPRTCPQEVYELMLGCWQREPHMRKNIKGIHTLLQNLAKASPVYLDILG

Consider `CN1CCN(c2ccc(C(=O)Nc3n[nH]c4ccc(Cc5cc(F)cc(F)c5)cc34)c(NC3CCOCC3)c2)CC1` [N-[5-(3,5-difluorobenzyl)-1H-indazol-3-yl]-4-(4-methyl-piperazin-1-yl)-2-(tetrahydro-pyran-4-ylamino)-benzamide], for which the “inhibition of tyrosine kinase TrkB” value at TrkB is “potent inhibitor”. For the same compound, the “exposure levels under fed conditions compared to fasting conditions” value in data set [1] is “approximately 2 fold”. For the same compound, the “inhibition of tyrosine kinase TrkC” value on TrkC is on record as “potent inhibitor”. Besides, the “inhibition of tyrosine kinase ALK” value in data set [2] was “potent inhibitor”.

The values are drawn from patent US20220218699A1, “New Pharmaceutical Formulation” (Hoffmann-La Roche Inc., priority 2019, published 2022).
